According to patent US20210087159A1, “TETRAHYDROCANNABINOLIC- CA[…] DERIVATIVES AND USES THEREOF” (AL&AM […]., priority 2018, published 2021):
Read-outs that look alike come from different tables or passages of the source.

Experiments:
Format in all cases: cell-based
[1] = system: T47D, breast ductal carcinoma; assay: CellTiter-Glo cell viability assay, cancer cell cytotoxicity/anti-proliferation panel (Chempartner); details: for IC50: Homo sapiens; for Inhibition: compounds 10 μM starting, STS 2 μM starting
Experimental: (§1) In this study, the biological activity of certain compounds of the present invention on cancer cell cytotoxicity/anti-proliferation panel was tested using the CellTiter-Glo® cell viability assay. The compounds were dissolved in DMSO to make 10 mM solution.
(§2) The cell lines tested were all selected from the Chempartner's cell collection and included: Caco-2 ATCC colon adenocarcinoma; TE-6 RIKEN esophagus, carcinoma; PC-3 ATCC prostate adenocarcinoma; T47D, breast ductal carcinoma; U251, brain human glioma; A549, lung carcinoma; OMP-2, multiple myeloma; SK-HEP-1, liver adenocarcinoma; PANC-1, pancreas ductal carcinoma; AsPC-1, pancreas, ductal carcinoma; and U-87 MG, brain glioblastoma.
(§3) For the assays described herein, absolute inhibition of cells growth (%) and absolute IC50 (Abs IC50; […]) were used to derive a value that can be used to compare results within and across runs in the same assay, as well as between different assays.
(§4) • a. Prepare complete medium: Add FBS and appropriate additives according to the information sheet provided by the vendor. Mix gently. • b. Check the cell name and complete medium and passage number marked on the flask. For adherent cell lines, refer to c to k. For suspension cell lines, refer to g to k. • c. Remove and discard culture medium using a vacuum pump. • d. Briefly rinse the cell layer with 0.25% (w/v) trypsin-0.038% (w/v) EDTA solution to remove all traces of serum that contains trypsin inhibitor. • e. Add 3.0 ml of trypsin-EDTA solution to flask and observe cells under an inverted microscope until cell layer is dispersed. • f. Add 8.0 ml of complete growth medium and aspirate cells by gently pipetting. • g. Transfer the cell suspension to a centrifuge tube and centrifuge at 800-1000 rpm for 3-5 minutes. • h. Discard the supernatant using a vacuum pump. • i. Add appropriate volume of complete medium. Suspend the cell pellet by gently pipetting. • j. Count the cell numbers with Vi-cell XR and adjust cells to appropriate density. • k. Add 100 μL of cell suspension to 96-well opaque-walled clear bottom plates according to the planned plate layout and place the plates in the CO2 incubator overnight. • l. Plate layout:
(§5) • Plate preparation of testing articles. 10 mM stock solution of each one of the compounds (provided as powder) was prepared in DMSO. […] 0.5 μL of each of the diluted compounds was transferred to the wells containing 100 μL of the culture medium. The total dilution was 200 fold. Cells were incubated with the compounds for 72 hours at 5% CO2, 37° C.
(§6) • Thaw the CellTiter-Glo buffer and equilibrate to room temperature prior to use. • Equilibrate the lyophilized CellTiter-Glo substrate to room temperature prior to use. • Transfer the appropriate volume of CellTiter-Glo buffer into the amber bottle containing CellTiter-Glo substrate to reconstitute the lyophilized enzyme/substrate mixture. This forms the CellTiter-Glo reagent. • Mix by gently vortexing, swirling or by inverting the contents to obtain a homogeneous solution. The CellTiter-Glo substrate should go into solution easily in less than one minute.
(§7) • Observe the cell morphology under an inverted microscope after corresponding treatment. • Equilibrate the plate and its contents to room temperature for approximately 30 minutes. • Add 100 μL of CellTiter-Glo reagent to the assay plate by Multidrop Combi instrument. • Mix contents for 10 minutes on an orbital shaker to induce cell lysis. • Allow the plate to incubate at room temperature for 10 minutes to stabilize luminescent signal. • Paste the clear bottom with white back seal and record luminescence with Enspire. The settings should be: Luminescence, measurement time 0.1 ms.
(§8) Inhibition (%) and absolute IC50 (μM) of each compound was calculated with XLFit curve fitting software that is compatible to Activity Base.

[2] = system: TNF-α; assay: LPS induced cytokine release assay, TNF-α by ELISA in PBMCs; details: human PBMCs; for TNF-α: 72 h, ELISA (LPS control 18.16); for change of TNF-α expression in LPS-treated cells: tested concentrations of 1 M and 10 M (so in the source)
Description: This study was aimed to test the effect of 12 compounds (THCA, Ia1, Ia5, Ia6, Ia9, Ia11, Ia15, Ia17, Ia24, Ia25, Ia27, and Ia28) on human peripheral blood mononuclear cells (PBMCs) challenged by lipopolysaccharide (LPS) through monitoring multiple inflammatory endpoints.
Blood samples were collected from healthy volunteers according to protocols that have been reviewed and approved by the Chempartner Institutional Ethic Committee (IEC) upon signing an Informed Consent Form (ICF).
Fresh PBMCs were isolated and seeded into 96-well plate, and diluted solutions of the tested compounds and 0.1 μg/mL LPS were then added (in triplicates). To serve as control, 3 wells with PBMCs only, 3 wells with 0.1 μg/mL LPS, and 2 wells with 1 μg/mL dexamethasone (Dex) and 0.1 μg/mL LPS were included. After 72 hours incubation, supernatant was collected for tumor necrosis factor-α (TNF-α) measurement by enzyme-linked immunosorbent assay (ELISA), and cell pellets were harvested for cell proliferation measurement by CellTiter-Glo® Luminescent Cell Viability Assay (CTG).
The human blood sample from an individual donor was diluted by the same volume of sterile phosphate buffered solution (PBS) and mixed sufficiently by gentle shake. 15 mL Lymphoprep™ medium was transferred into a new 50 mL centrifuge tube, and the diluted blood sample (30 mL) was then carefully added onto the surface of the medium, which consequently contained Ficoll 400 and blood in a volume ratio of 1:2. Four interfaces were observed after centrifugation, which are, from top to bottom, layers of plasma, mononuclear cells, Ficoll medium, and red blood cells (RBCs). Plasma was absorbed, and mononuclear cells were then transferred into another new sterile centrifuge tube. Then, sterile PBS buffer was added into the collected PBMCs for washing, at a volume ratio of 3:1. PBMCs were washed with 5-10 mL PBS twice before cell counting with cytometer. Cells were centrifuged at 350×g, for 10 min, at 20° C. with the acceleration (5) and deceleration (5) settings during the centrifugation. The cells were resuspended with RPMI 1640 complete medium (containing 10% FBS) for assay, and the density was adjusted with RPMI 1640 complete medium to the final concentration of 2E6 cells/mL. Cells suspension of the PBMCs (100 μL/well) were seeded into 96-well plate (#3903).
Diluted solutions of the tested compounds were prepared with RPMI 1640 complete medium according to the following layout. Compounds were prepared at 5-fold of concentration (50 μM), and then were diluted to the working concentration of 10 μM with RPMI 1640 complete medium and made 10-fold serially dilution (2 points). The diluted compounds (50 μL/well) were added to the indicated wells, and the plate was incubated at 37° C., 5% CO2, for 72 h.
LPS (0.1 μg/mL, 100 μL) was added into each well. Dex (1 μg/mL) was included as a positive control. Plate was incubated at 37° C., 5% CO2 for 72 h. Supernatant was collected to measure TNF-α by ELISA. Cell proliferation was detected by CTG.

[3] = system: PANC-1, pancreas ductal carcinoma; assay: CellTiter-Glo cell viability assay, cancer cell cytotoxicity/anti-proliferation panel (Chempartner); details: for IC50: Homo sapiens, PANC-1, 72 h, read-out: IC50 (absolute IC50); for Inhibition: PANC-1, 72 hours, compounds 10 μM starting, STS 2 μM starting, 10-pt, 3-fold dilution
Experimental: as §1, §2, §3, §4, §5, §6, §7, §8

[4] = T47D, 72 h, read-out: IC50 (absolute IC50)
[5] = T47D, 72 hours, 10-pt, 3-fold dilution

Compound	IC50 ([1]; Table 5, T47D cells, 72 hours, read-out: AbsIC50)	Inhibition % ([1]; Table 5, T47D cells, 72 hours, 10 μM starting, 10-pt, 3-fold dilution)	TNF-α ([2]; compound 1 μM + 0.1 μg/mL LPS)	TNF-α ([2]; compound 10 μM + 0.1 μg/mL LPS)	change of TNF-α expression in LPS-treated cells [2]	IC50 [1, 4]	Inhibition [1, 5]	IC50 [3]	Inhibition [3]
C=C(C)[C@@H]1CCC(C)=C[C@H]1c1c(O)cc(CCCCC)c(C(=O)NCCCN2CCOCC2)c1O [Ia28, (1′R,2′R)-2,6-dihydroxy-5′-methyl-N-(3-morpholinopropyl)-4-pentyl-2′-(prop-1-en-2-yl)-1′,2′,3′,4′-tetrahydro-[1,1′-biphenyl]-3-carboxamide]	> 10 µM	14.85%	41.38 pg/mL	22.35 pg/mL	decreased TNF-α expression				
CCCCCc1cc2c(c(O)c1C(=O)NCCCN1CCOCC1)[C@@H]1C=C(C)CC[C@H]1C(C)(C)O2 [Ia9, (6aR,0aR)-1-hydroxy-6,6,9-trimethyl-N-(3-morpholinopropyl)-3-pentyl-6a,7,8,10a-tetrahydro-6H-benzo[c]chromene-2-carboxamide]			20.26 pg/mL	45.82 pg/mL	increased TNF-α expression	5.52 µM	97.90%	5.46 µM	92.19%
CCCCCc1cc2c(c(O)c1C(=O)O)[C@@H]1C=C(C)CC[C@H]1C(C)(C)O2 [THCA, tetrahydrocannabinolic acid, reference compound]			21.04 pg/mL	27.57 pg/mL	increased TNF-α expression	> 10 µM	18.20%	> 10 µM	15.20%
CCCCCc1cc2c(c(O)c1C(=O)NCCN(C)C)[C@@H]1C=C(C)CC[C@H]1C(C)(C)O2 [Ia6, (6aR,0aR)—N-(2-(dimethylamino)ethyl)-1-hydroxy-6,6,9-trimethyl-3-pentyl-6a,7,8,10a-tetrahydro-6H-benzo[c]chromene-2-carboxamide]			17.09 pg/mL	49.73 pg/mL	increased TNF-α expression	6.09 µM	84.19%	6.02 µM	90.10%
